One may read the LD50 as the dose expected to kill half of the subjects tested.

Experimental findings from patent publication US7402601B2, “Pharmaceuticals for the treatment of rejection reactions in organ transplantations” (Sanofi-Aventis Deutschland GmbH, priority 1991, dated 2008) are described below.

The nature of one data set: in vivo. The settings on record: ip. As for the experimental part:
Acute Toxicity after Intraperitoneal Administration
The acute toxicity after intraperitoneal administration of the test substances was determined with NMRI mice (20 to 25 g) and SD rats (120 to 195 g). The test substance was suspended in a 1% strength sodium carboxymethyl-cellulose solution. The different dosages of the test substance were administered to the mice in a volume of 10 ml/kg of body weight and to the rats in a volume of 5 ml/kg of body weight. Per dosage, 10 animals were used. After 3 weeks, the acute toxicity was determined by the method of Litchfield and Wilcoxon.

The subject of data set [1] is naturally occurring xenophilic antibodies (NXA). Put plainly: Naturally occurring xenophilic antibodies (NXA) in non-sensitized rats, flow cytometry. The class given is in vivo. The settings on record: non-sensitized LEW rats, 10 mg/kg every day i.p., 11th day. As for the experimental part:
2 to 3 month-old rats (LEW) are intraperitoneally (i.p.) sensitized with 2×10^7 human peripheral blood lymphocytes. The i.p. administration of compound 2 starts 4 days before sensitization and ends 10 days after sensitization of the rats. Serum samples are taken from the tail vein and stored at −80° C.; the activity of complement is avoided by heat deactivation.
The naturally occurring xenophilic antibodies (NXA) and the xenophilic antibodies induced by sensitization (SXA) are titrated and live human peripheral blood lymphocytes are added (45 min. at 20° C.). After intensive washing, FITC-labeled goat-anti-rat IgG or IgM antibodies are added and the binding to SXA or NXA is quantitatively determined by flow cytometry (FACScan, Becton Dickinson).
The serum of male LEW rats contain NXA which bind to vital human peripheral blood lymphocytes, to be precise usually with an average IgM titer of 1:4 and an average IgG titer of less than 1:1. The rats (n=8) which are treated every day with 10 mg/kg of compound 2, show a 30% reduction in their IgG titer and a 50% reduction in their IgM titer on the 11th day.
(In general: Flow cytometry measures light scatter and fluorescence of single cells or particles in a stream.)

A further data set has as its system allophilic antibodies. Put plainly: Formation of allophilic antibodies after heart transplantation (Brown-Norway to Lewis rats), complement cytotoxicity on donor spleen cells, Trypan Blue exclusion. The format is in vivo. As for the experimental part:
The action of compound 2 on the formation of allophilic antibodies.
Male Brown-Norway rats with a weight of 200 to 250 g are used as heart donors. The hearts are transplanted into male Lewis rats of the same weight. All rats are supplied with a standard diet and water and kept in an environment with 12 hours of light and darkness.
[…] The titer of allophilic antibodies in the blood of the recipient rats is determined by incubating various dilutions of the recipient blood with spleen cells of the donor rats (Brown-Norway rats) and rabbit complement. The cytotoxicity is determined by the Trypan Blue exclusion method. The p value for the antibodies is determined using the standard t-test and compared with the untreated control animals.
Treatment with compound 2 begins on the 4th day after transplantation. 10 mg/kg of compound 2 in each case are administered i.p. once per day. The number of animals which are simultaneously treated is 5 (n=5). Treatment ends on the 17th day.

Regarding `Cc1oncc1C(=O)Nc1ccc(C(F)(F)F)cc1` [Compound 1, N-(4-trifluoromethyl)-5-methylisoxazole-4-carboxanilide], the LD50 at 3 weeks is 185 mg/kg in “in vivo” (NMRI, mouse) and 170 mg/kg in the data set “in vivo” (SD, rat).
As to `C/C(O)=C(\C#N)C(=O)Nc1ccc(C(F)(F)F)cc1` [Compound 2, N-(4-trifluoromethylphenyl)-2-cyano-3-hydroxycrotonamide], in data set [1], the “reduction in IgG titer (NXA)” value is listed as 30%. Further, the “reduction in IgM titer (NXA)” value in data set [1] came to 50%. Besides, the “mean of the cytotoxicity values” with allophilic antibodies (serum dilution 1:5, day 0 after transplantation (before treatment start on day 4), 10 mg/kg i.p. once per day) is 3%; with allophilic antibodies (serum dilution 1:5, day 4 after transplantation (treatment begins), 10 mg/kg i.p. once per day), 63%; with allophilic antibodies (serum dilution 1:5, day 7 after transplantation, 10 mg/kg i.p. once per day from day 4) it was 36%; in the data set on allophilic antibodies (serum dilution 1:5, day 11 after transplantation, 10 mg/kg i.p. once per day from day 4), 19%; with allophilic antibodies (serum dilution 1:5, day 14 after transplantation, 10 mg/kg i.p. once per day from day 4), 22%; in the data set with allophilic antibodies (serum dilution 1:5, day 17 after transplantation, 10 mg/kg i.p. once per day from day 4) it was 11%. Further, the “mean of the cytotoxicity values” with allophilic antibodies (serum dilution 1:25, day 0 after transplantation (before treatment start on day 4), 10 mg/kg i.p. once per day) was determined as 3%; in the data set on allophilic antibodies (serum dilution 1:25, day 4 after transplantation (treatment begins), 10 mg/kg i.p. once per day) it was 58%; with allophilic antibodies (serum dilution 1:25, day 7 after transplantation, 10 mg/kg i.p. once per day from day 4), 31%; in the data set with allophilic antibodies (serum dilution 1:25, day 11 after transplantation, 10 mg/kg i.p. once per day from day 4), 16%; in the data set with allophilic antibodies (serum dilution 1:25, day 14 after transplantation, 10 mg/kg i.p. once per day from day 4), 11%; with allophilic antibodies (serum dilution 1:25, day 17 after transplantation, 10 mg/kg i.p. once per day from day 4), 6%. For the same compound, the “mean of the cytotoxicity values” was 4% in the data set on allophilic antibodies (serum dilution 1:125, day 0 after transplantation (before treatment start on day 4), 10 mg/kg i.p. once per day); 34% in the data set on allophilic antibodies (serum dilution 1:125, day 4 after transplantation (treatment begins), 10 mg/kg i.p. once per day); 20% in the data set on allophilic antibodies (serum dilution 1:125, day 7 after transplantation, 10 mg/kg i.p. once per day from day 4); 9% in the data set on allophilic antibodies (serum dilution 1:125, day 11 after transplantation, 10 mg/kg i.p. once per day from day 4); 6% in the data set with allophilic antibodies (serum dilution 1:125, day 14 after transplantation, 10 mg/kg i.p. once per day from day 4); 5% with allophilic antibodies (serum dilution 1:125, day 17 after transplantation, 10 mg/kg i.p. once per day from day 4). In the data set “in vivo” (NMRI, mouse), the LD50 at 3 weeks turned out to be 150 mg/kg.
